# Test results as given in US12622902B2, “Anti-arrhythmic pharmaceutical composition and preparation method therefor” (JIANGSU KANION PHARMACEUTICAL CO., LTD., priority 2020, dated 2026).
# How the values were obtained:
# [1] = Study of compositions of compound A and its salt under moisture and heat; type: physicochemical; conditions: condition of moisture and heat
# From the text: Accordingly, the present application provides an anti-arrhythmic pharmaceutical composition with high stability and rapid dissolution, and a preparation method thereof.
# [2] = system: ventricular tachycardia and ventricular fibrillation; conditions: cited from earlier work
smiles,measurement,setting,value
"COc1cc2c(cc1OCc1ccccc1)C(Cc1cccc(NS(C)(=O)=O)c1)NCC2 (stereo not drawn) [compound A, 1-(3-methanesulfonamidobenzyl)-6-methoxy, 7-benzyloxy-1,2,3,4-tetrahydroisoquinoline]",stability of the drug in a pharmaceutical composition,[1],decomposed
same,effect on ventricular tachycardia and ventricular fibrillation,[2],effective
same,action potential duration,[2]; class III anti-arrhythmic drug,can prolong
